Laboratory results as given in BigSolDB 2.1.

O=c1cc(CO)occ1O
solubility (mole fraction)
Details | 278.15 K | 283.15 K | 288.15 K | 293.15 K | 298.15 K | 303.15 K | 308.15 K | 313.15 K | 318.15 K | 323.15 K
in THF | 0.00384 | 0.00435 | 0.00541 | 0.00663 | 0.00799 | 0.00961 | 0.0116 | 0.0134 | 0.017 | 0.0199
in acetonitrile | 0.00062 | 0.00078 | 0.00097 | 0.00122 | 0.00151 | 0.00184 | 0.00226 | 0.00276 | 0.00341 | 0.00424
in isopropanol | 0.00213 | 0.00266 | 0.0032 | 0.00392 | 0.00478 | 0.00557 | 0.00667 | 0.00814 | 0.00974 | 0.0116
in methyl acetate | 0.00085 | 0.0011 | 0.00141 | 0.00172 | 0.00213 | 0.0026 | 0.00317 | 0.00385 | 0.00467 | 0.00556
in n-butanol | 0.00193 | 0.00242 | 0.00289 | 0.00364 | 0.00452 | 0.00538 | 0.00646 | 0.00779 | 0.00935 | 0.011
in n-pentanol | 0.00185 | 0.00222 | 0.0028 | 0.00392 | 0.00417 | 0.00506 | 0.00611 | 0.00733 | 0.00882 | 0.0106
in sec-butanol | 0.00202 | 0.00245 | 0.00315 | 0.00387 | 0.00465 | 0.0057 | 0.0069 | 0.00817 | 0.00981 | 0.0117
